Measurements: US20100215710A1, “Beta-2 Adrenergic Receptor Agonists and Antagonists and Modulation of Wound Healing” (The Regents of the University of California, priority 2005, published 2010)

What was measured:
human keratinocytes = experiment: Keratinocyte proliferation assay (β-AR agonist, OA); type: cell-based
Description: Keratinocytes were released from the tissue culture plate by treatment with 0.25% trypsin/EDTA (Gibco, Grand Island, N.Y.), resuspended in KGM and counted using a haemocytometer. Cells were either untreated or pre-treated with okadaic acid (OA) (10 nM) for 45 minutes prior to β-AR agonist (1 μM) addition. 5×10^4 cells were plated per well in a 12 well plate in triplicate in the presence or absence of 1 μM β-AR agonist, 10 nM OA or both. Triplicate wells were harvested and counted on days 2, 4, 6, 8. The medium was changed every day. Significance was taken as p<0.01, using Student's t test (unpaired) to compare the means of the cell populations.
5×10^4 […] keratinocytes were plated per well in a 12 well plate in triplicate in the presence or absence of β-AR agonist (1 μM) (FIG. 2 Panel A; control represented by circles, 1 μM β-AR agonist by squares), or pre-treated with 10 nM OA for 30 minutes prior to the addition of OA alone or both OA and β-AR agonist, (FIG. 2 Panel B; OA represented by X's and OA/β-AR agonist by stars). Cells were harvested and counted on days 2, 4, 6, 8 as described. The data are representative of three independent experiments with at least two different keratinocyte strains. Values plotted are means+/−SEM. *P<0.01 between β-AR agonist and controls.

phospho-ERK = experiment: Phospho-ERK immunolocalization in keratinocytes; type: cell-based, human
Description: Sterile glass cover-slips (Fisher Scientific, Pittsburgh, Pa.) were transferred into 12 well dishes and collagen-coated with 60 μg/ml collagen I in KGM for 1 hour at 37° C. Cover-slips were washed three times with KGM and 3×10^4 cells were added per well and allowed to attach overnight. Cells were untreated, treated with 1 μM β-AR agonist for 15 minutes, OA (10 nM) for 45 minutes, or pre-treated with OA (10 nM) for 30 minutes prior to the addition of 1 μM β-AR agonist for 15 minutes. All steps were performed at room temperature unless otherwise noted. Cover slips were washed twice in PBS and fixed for 10 minutes in 4% paraformaldehyde. Cover-slips were washed twice in PBS between each step. Cells were permeabilized for 5 minutes with 0.1% Triton-X-100/PBS, blocked with 5% goat serum/PBS for 20 minutes, primary monoclonal anti-vinculin antibody (Sigma, St. Louis, Mo.) or anti-phospho-ERK antibody (Cell Signaling Technology, Beverly, Mass.) were added drop-wise in 1% goat serum/PBS (1:100) and incubated for 1 hour at 37° C. A goat anti-mouse cy3 (Jackson labs, West Grove, Pa.) (1:100) antibody was then added in 1% goat serum/PBS for 1 hour at 37° C. Alexa 488-phalloidin (Molecular Probes, Eugene, Oreg.) (1:40) in PBS was added to the vinculin-stained cover-slips for 20 minutes. […]

adult human CECs = experiment: Immunofluorescent staining of actin and vinculin, adult human CECs; type: cell-based
Description: Sterile glass cover slips were transferred into 12 well dishes and collagen-coated with 60 μg/ml collagen I in PBS for 1 hour at 37° C. Cover slips were washed three times with CGM and 3×10^4 adult human CECs were added per well and allowed to attach for 3 hours or overnight. Cells were untreated (control […]), treated with 20 μM β-AR antagonist, 10 nM or 1 μM β-AR agonist for 15 minutes, 100 nM OA for 45 minutes, or pre-treated with 100 nM OA for 30 minutes prior to the addition of 10 nM or 1 μM β-AR agonist for 15 minutes. […]
Cells plated in the absence of β-AR agonist are polarized and crescent shaped with a broad lamellipodium, characteristic of the migratory phenotype (Ridley et al. (2003) “Cell migration: integrating signals from front to back” Science 302:1704-9). […] Image J was used to measure the actin and vinculin associated fluorescence by measuring the mean pixel intensity (MPI) of 25 cells from each condition. Control cells have an MPI of 40.3+/−4.8. β-AR agonist treatment has no significant effect on actin and vinculin associated fluorescence; the MPI of β-AR agonist-treated cells is 44.6+/−2.

C=C1[C@@H](O)[C@@H]2O[C@]3(CC[C@H](/C=C/[C@@H](C)[C@@H]4CC(C)=C[C@@]5(O[C@H](C[C@@](C)(O)C(=O)O)CC[C@H]5O)O4)O3)CC[C@H]2O[C@@H]1[C@@H](O)C[C@H](C)[C@H]1O[C@@]2(CCCCO2)CC[C@H]1C [OA, okadaic acid]
effect on keratinocyte proliferation (human keratinocytes; OA 10 nM alone): no effect | effect on β2-AR-mediated decrease in proliferation (human keratinocytes; OA 10 nM pre-treatment, then OA plus 1 μM β-AR agonist): completely prevents | effect on level of ERK phosphorylation or localization (phospho-ERK; OA 10 nM alone): no effect | effect on agonist-induced loss of lamellipodial phospho-ERK localization and nuclear/peri-nuclear decrease (phospho-ERK; OA 10 nM pre-treatment prior to 1 μM β-AR agonist): prevents | effect on cytoskeletal organization (adult human CECs; OA 100 nM alone): no effect | effect on β2-AR-mediated alterations in cytoskeletal organization (adult human CECs; OA 100 nM pre-treatment prior to β-AR agonist 10 nM): prevents
